Test results taken from ChEMBL document CHEMBL1201862, “PubChem BioAssay data set” (2004).
Activity calls are given as the source filed them.

How the values were obtained:
Cytochrome P450 2D6 = Cytochrome P450 2D6 (Homo sapiens, UniProt P10635);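 note: CYP2D6 member of a cytochrome P450 panel assay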
Cytochrome P450 1A2 = biological target: T1, Cytochrome P450 1A2 (Homo sapiens, UniProt P05177);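 note: PubChem cytochrome P450 panel assay, CYP1A2 panel member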
T1 sequence (P05177 whole entry): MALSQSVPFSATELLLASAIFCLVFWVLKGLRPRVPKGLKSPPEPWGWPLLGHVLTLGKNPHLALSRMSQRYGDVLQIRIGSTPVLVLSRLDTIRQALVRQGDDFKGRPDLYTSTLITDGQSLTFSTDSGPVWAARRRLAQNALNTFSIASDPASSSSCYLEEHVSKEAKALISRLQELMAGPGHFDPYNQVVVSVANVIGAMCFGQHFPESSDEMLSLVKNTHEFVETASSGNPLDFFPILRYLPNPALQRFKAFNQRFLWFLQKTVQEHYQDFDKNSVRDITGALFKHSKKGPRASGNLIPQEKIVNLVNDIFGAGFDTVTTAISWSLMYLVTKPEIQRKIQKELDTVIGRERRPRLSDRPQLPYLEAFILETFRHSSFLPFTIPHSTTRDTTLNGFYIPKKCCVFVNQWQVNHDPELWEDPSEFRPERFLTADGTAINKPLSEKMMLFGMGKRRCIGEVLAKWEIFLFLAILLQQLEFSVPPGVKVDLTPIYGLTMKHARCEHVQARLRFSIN

cells = type: functional
Large T antigen = Large T antigen (Simian virus 40, UniProt P03070); type: functional, Betapolyomavirus macacae;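 note: Confirmatory-stage PubChem screen for compounds that inhibit SV40 T antigen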
Chain of Large T antigen (P03070 whole entry): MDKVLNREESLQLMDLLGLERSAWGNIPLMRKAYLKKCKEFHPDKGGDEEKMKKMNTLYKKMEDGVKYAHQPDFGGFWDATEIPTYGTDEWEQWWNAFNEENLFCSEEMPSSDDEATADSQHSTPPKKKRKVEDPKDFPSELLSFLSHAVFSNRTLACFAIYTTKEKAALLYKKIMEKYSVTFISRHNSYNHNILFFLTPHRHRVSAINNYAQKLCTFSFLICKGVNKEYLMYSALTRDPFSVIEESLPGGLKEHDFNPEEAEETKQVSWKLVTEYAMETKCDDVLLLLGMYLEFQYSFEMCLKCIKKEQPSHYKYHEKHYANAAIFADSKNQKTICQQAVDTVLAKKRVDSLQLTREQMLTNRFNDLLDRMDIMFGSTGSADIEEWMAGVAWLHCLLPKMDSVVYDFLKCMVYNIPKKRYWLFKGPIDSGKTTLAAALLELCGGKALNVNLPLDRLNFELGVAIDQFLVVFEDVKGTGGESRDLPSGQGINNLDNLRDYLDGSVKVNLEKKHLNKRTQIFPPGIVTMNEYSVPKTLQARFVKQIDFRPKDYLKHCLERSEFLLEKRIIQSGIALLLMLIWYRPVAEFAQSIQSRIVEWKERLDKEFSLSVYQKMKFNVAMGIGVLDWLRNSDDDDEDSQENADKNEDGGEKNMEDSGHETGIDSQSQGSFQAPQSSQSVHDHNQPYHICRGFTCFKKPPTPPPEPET

[1] = biological target: Luciferin 4-monooxygenase (Photinus pyralis, UniProt P08659); assay: firefly luciferase enzyme inhibitors, dose response, biochemical, luminescence (AID 1891)
Chain of Luciferin 4-monooxygenase (P08659 whole entry): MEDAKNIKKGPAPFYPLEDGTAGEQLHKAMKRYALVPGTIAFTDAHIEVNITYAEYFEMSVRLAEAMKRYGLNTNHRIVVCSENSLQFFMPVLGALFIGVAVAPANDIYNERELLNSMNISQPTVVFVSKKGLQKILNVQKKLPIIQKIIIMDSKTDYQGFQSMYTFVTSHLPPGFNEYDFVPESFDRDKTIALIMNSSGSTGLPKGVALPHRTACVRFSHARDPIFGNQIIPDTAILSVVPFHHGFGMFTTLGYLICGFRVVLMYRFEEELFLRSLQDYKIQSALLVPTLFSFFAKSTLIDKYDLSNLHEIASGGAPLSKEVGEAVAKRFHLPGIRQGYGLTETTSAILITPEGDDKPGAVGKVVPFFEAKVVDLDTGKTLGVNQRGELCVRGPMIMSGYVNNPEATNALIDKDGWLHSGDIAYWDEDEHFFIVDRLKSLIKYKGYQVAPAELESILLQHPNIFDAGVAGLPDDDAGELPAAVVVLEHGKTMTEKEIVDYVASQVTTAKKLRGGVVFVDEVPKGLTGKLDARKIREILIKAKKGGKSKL

[2] = Luminescence Cell-Based Dose Confirmation HTS to Identify Inhibitors of Platelet Dense Granule Release. [Related pubchem assays: 1663 (Primary HTS), 1678 (Summary of Project)]; type: functional
[3] = system: Streptococcus sp. 'group A'; assay: growth inhibition of control SK(-) GAS strain, dose response, counter-screen for streptokinase expression inhibitor project, luminescence, kanamycin, BacTiterGlo, confirmation (AID 1900); type: functional, organism-based
Streptokinase A = biological target: T2, Streptokinase A (Streptococcus pyogenes serotype M1, UniProt P10520); assay: S. pyogenes streptokinase expression inhibitors, potency, dose response, plasminogen activation absorbance, OD405 (AID 1914); type: functional, Streptococcus pyogenes M1 GAS;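 note: secreted streptokinase activity via plasminogen activation per viability signal from cell pellet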
T2 sequence (P10520 whole entry): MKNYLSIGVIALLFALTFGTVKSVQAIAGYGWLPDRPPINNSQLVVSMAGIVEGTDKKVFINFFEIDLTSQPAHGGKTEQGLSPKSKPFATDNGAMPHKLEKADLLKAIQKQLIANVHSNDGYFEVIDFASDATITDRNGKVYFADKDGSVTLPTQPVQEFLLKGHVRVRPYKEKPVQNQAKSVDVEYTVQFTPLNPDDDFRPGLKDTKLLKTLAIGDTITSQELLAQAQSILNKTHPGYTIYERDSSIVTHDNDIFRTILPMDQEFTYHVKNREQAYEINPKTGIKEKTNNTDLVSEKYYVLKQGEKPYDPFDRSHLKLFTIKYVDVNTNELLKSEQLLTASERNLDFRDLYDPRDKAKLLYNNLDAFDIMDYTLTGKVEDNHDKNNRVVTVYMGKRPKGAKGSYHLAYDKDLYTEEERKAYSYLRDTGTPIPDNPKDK

Streptococcus = assay: Group A Streptococcus viability loss, dose response, counter-screen for streptokinase expression inhibitor project, luminescence, BacTiterGlo (AID 1915); type: functional, organism-based;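 note: potency for reduction of bacterial viability or growth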
[4] = inhibitors of intracellular T. cruzi replication, confirmation, NIH3T3 host cells, beta-gal luminescence (AID 2044); type: functional, cell-based;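 note: intracellular parasites grown in NIH/3T3 mouse fibroblasts as host cells; luminescent beta-galactosidase reporter signal from transgenic T. cruzi replicating inside host cells; inhibitors lower the luminescence signal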
[5] = cytotoxicity toward NIH3T3 fibroblasts, dose response, counter-screen, cell-based, ATP luminescence, mouse fibroblasts (AID 2010); type: functional;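 note: cells exposed to compound for about 90 hours before reading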
[6] = biological target: T3, RNA-binding protein pos-1 (Caenorhabditis elegans, UniProt G5EF15); assay: inhibitors of POS-1/mex-3 RNA binding, dose response, biochemical, fluorescence polarization (AID 1964);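 note: purified POS-1 fused to maltose binding protein made in E. coli; potency of compounds blocking POS-1 binding to fluorescent RNA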
T3 sequence (G5EF15 whole entry): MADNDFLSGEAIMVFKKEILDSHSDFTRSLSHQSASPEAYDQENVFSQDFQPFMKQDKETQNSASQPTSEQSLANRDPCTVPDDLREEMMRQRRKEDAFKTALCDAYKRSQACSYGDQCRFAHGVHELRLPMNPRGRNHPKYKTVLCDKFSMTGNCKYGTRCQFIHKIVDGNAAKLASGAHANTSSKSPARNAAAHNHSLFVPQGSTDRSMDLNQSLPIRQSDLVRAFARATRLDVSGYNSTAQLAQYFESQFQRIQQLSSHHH

[7] = biological target: T4, Zinc finger protein mex-5 (Caenorhabditis elegans, UniProt Q9XUB2); assay: MEX-5/TCR-2 RNA interaction inhibitors, dose response, biochemical, C. elegans, fluorescence polarization (AID 1960)
T4 sequence (Q9XUB2 whole entry): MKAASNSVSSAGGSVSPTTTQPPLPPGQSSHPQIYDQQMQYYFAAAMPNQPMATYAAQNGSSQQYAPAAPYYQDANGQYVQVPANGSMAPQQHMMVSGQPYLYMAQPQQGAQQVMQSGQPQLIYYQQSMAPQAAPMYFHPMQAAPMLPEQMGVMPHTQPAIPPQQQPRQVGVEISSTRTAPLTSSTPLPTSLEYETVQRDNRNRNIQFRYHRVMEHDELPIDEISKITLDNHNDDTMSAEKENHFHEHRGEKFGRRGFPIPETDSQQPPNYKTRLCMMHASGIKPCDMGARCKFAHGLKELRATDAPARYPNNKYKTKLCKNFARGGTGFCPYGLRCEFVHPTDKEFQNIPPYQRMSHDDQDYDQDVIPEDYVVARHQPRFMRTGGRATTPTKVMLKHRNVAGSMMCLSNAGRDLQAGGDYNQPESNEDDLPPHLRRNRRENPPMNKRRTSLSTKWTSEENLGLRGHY

Cytochrome P450 2C9 = Cytochrome P450 2C9 (Homo sapiens, UniProt P11712)
Chain of Cytochrome P450 2C9 (P11712 whole entry): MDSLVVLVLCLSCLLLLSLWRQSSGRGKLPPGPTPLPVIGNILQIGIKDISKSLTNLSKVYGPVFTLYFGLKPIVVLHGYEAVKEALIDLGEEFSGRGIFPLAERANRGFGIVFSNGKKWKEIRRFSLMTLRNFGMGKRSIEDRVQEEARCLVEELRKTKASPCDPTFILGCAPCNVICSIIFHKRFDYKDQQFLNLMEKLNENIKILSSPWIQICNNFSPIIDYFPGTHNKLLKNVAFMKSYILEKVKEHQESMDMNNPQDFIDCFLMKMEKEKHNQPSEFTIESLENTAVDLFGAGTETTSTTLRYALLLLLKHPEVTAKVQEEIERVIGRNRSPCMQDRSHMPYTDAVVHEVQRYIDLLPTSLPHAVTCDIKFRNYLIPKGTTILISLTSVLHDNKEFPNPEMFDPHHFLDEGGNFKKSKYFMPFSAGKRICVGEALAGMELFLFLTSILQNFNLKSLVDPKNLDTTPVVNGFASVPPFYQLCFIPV

Cytochrome P450 2C19 = Cytochrome P450 2C19 (Homo sapiens, UniProt P33261); assay: Cytochrome panel assay with activity outcomes. Panel member name: p450-cyp2c19 Compounds with AC50 equal or less than 10 uM are considered active; type: functional; conditions: read-out: AC50
Chain of Cytochrome P450 2C19 (P33261 whole entry): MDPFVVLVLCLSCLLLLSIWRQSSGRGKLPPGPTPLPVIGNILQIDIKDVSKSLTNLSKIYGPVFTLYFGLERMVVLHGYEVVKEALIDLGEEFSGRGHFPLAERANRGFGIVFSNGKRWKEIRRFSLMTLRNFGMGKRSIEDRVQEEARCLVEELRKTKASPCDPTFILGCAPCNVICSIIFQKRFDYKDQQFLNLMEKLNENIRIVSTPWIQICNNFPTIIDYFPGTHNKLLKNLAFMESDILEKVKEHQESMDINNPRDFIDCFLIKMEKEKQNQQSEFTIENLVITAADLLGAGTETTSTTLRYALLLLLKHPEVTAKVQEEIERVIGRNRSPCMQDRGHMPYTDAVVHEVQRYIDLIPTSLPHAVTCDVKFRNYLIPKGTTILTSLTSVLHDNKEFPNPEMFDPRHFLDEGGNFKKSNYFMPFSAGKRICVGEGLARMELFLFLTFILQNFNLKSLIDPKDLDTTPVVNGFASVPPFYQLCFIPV

Cytochrome P450 3A4 = Cytochrome P450 3A4 (Homo sapiens, UniProt P08684);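 note: CYP3A4 tested as one member of a cytochrome P450 panel screen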
Chain of Cytochrome P450 3A4 (P08684 whole entry): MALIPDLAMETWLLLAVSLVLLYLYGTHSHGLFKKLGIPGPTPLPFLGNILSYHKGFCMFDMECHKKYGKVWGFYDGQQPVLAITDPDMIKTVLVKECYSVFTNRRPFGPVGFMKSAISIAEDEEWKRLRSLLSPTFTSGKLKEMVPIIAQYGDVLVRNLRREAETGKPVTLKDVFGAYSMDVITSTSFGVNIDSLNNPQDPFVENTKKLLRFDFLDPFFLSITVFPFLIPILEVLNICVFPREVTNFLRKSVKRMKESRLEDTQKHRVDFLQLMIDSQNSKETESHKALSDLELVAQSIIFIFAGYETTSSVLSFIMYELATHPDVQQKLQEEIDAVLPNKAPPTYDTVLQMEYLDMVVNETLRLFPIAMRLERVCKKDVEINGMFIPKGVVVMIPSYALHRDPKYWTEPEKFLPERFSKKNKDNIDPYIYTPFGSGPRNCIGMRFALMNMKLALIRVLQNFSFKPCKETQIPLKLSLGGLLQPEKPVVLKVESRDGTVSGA

[8] = biological target: T5, Rac GTPase-activating protein 1 (Homo sapiens, UniProt Q9H0H5); assay: MgcRacGAP GTPase-activating activity inhibitors, confirmation, biochemical, ADP Hunter fluorescence, primary and confirmatory (AID 624330); type: functional
T5 sequence (Q9H0H5 whole entry): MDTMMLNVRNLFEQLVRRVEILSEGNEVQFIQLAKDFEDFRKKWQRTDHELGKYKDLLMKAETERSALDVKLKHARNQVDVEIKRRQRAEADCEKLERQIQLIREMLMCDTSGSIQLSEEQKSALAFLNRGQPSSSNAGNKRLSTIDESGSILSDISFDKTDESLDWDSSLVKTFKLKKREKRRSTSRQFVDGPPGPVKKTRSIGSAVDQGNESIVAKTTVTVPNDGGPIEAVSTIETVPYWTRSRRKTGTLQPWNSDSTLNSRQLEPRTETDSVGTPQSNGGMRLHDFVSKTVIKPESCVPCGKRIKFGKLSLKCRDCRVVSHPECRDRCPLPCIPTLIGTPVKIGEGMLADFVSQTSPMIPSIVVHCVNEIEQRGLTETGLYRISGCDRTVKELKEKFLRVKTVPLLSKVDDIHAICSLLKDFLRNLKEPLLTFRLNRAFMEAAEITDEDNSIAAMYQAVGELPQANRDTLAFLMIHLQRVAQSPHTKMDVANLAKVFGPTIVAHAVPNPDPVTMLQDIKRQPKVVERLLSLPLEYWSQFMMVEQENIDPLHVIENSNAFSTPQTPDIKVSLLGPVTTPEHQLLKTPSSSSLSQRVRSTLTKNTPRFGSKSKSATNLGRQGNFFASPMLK

INS1 = assay: beta cell apoptosis inhibitors, cytokine rescue, dose response, luminescence, retest (AID 449756); type: functional, cell-based; conditions: Rattus norvegicus;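 note: cell death triggered by IL-1 beta plus TNF-alpha plus IFN-gamma mixture; protective hits raise ATP signal compared with cytokine alone wells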
[9] = HEp-2 cell cytotoxicity, dose response, cytotoxicity control for RSV inhibitor project, HTS (AID 2410); type: functional; conditions: human respiratory syncytial virus

Chain of Cytochrome P450 2D6 (P10635 whole entry): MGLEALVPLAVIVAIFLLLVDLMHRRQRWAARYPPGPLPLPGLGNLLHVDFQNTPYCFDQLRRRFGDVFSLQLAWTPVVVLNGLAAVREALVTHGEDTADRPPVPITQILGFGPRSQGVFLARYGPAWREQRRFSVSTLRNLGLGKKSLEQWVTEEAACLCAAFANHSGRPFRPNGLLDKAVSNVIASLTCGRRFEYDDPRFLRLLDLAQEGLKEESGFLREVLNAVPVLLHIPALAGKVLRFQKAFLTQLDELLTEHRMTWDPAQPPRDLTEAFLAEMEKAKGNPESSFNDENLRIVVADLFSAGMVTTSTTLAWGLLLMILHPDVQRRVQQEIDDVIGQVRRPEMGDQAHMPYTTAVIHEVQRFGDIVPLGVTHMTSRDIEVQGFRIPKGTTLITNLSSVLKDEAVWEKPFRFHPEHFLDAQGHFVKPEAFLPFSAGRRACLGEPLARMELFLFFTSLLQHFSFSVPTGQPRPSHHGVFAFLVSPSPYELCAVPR

## CCCc1nc2ccccc2c(C(=O)OCC(=O)Nc2cccc(S(=O)(=O)N3CCOCC3)c2)c1CC
Cytochrome P450 2D6
  AC50: 17.8 µM (inconclusive)
Cytochrome P450 1A2
  AC50: 10 µM (inconclusive)

## CCOC(=O)c1cc(-c2csc(COc3ccccc3)n2)on1
cells
  IC50: < 0.1 µM (active)

## COc1cc2c(cc1OC)-c1cc(Nc3ccc(N(C)C)cc3)nc(=O)n1CC2
Large T antigen
  IC50: 2.74 µM (active)
[1]
  EC50: > 112 µM (not active)
[2]
  EC50: 4.83 µM (active)

## CCN(CC)c1nc(C(F)(F)F)nc2c1nnn2Cc1ccccc1
[3]
  EC50: 7.21 µM (active)
Streptokinase A
  EC50: 12.4 µM (active)
Streptococcus
  EC50: > 150 µM (not active)

## O=C(CSc1nc2ccccc2s1)Nc1nccs1
Cytochrome P450 2D6
  AC50: 0.316 µM (inconclusive)

## COCCn1c(=O)c(-c2cccc(C#N)c2)nc2cnc(N(C)C)nc21
Cytochrome P450 2D6
  AC50: 0.1 µM (inconclusive)
Cytochrome P450 1A2
  AC50: 2 µM (inconclusive)

## O=C(Nc1nnc(C2=COCCO2)o1)c1cccc(C(F)(F)F)c1
[3]
  EC50: 2.96 µM (active)
Streptococcus
  EC50: 7.55 µM (active)
cells
  IC50: 4.89 µM (active)

## O=C(O)[C@@H]1Cc2c([nH]c3ccccc23)[C@@H](CCCCO)N1
Cytochrome P450 2D6
  AC50: 3.98 µM (inconclusive)

## Cc1ccc(C(=O)NNC2=Nc3cccc4cccc2c34)cc1
[3]
  EC50: 3.26 µM (active)
Streptokinase A
  EC50: > 150 µM (not active)
Streptococcus
  EC50: > 150 µM (not active)

## O=C(Nc1ccc(F)cc1)c1cc(S(=O)(=O)N2CCCCC2)cs1
Cytochrome P450 2D6
  AC50: 25.1 µM (inconclusive)

## O=C(CSc1nnc(CNC(=O)c2c(F)cccc2F)o1)NCCc1ccccc1
[3]
  EC50: > 150 µM (not active)
Streptokinase A
  EC50: > 150 µM (not active)
Streptococcus
  EC50: > 150 µM (not active)

## COc1ccc2nc(C3CCCCC3)nc(C3CCCCC3)c2c1
[3]
  EC50: 2.8 µM (active)
Streptokinase A
  EC50: > 150 µM (not active)
Streptococcus
  EC50: 5.71 µM (active)

## CCOC(=O)c1sc2nccc(N(C)C)c2c1N=CNOCc1c(F)cccc1Cl
[3]
  EC50: 11.6 µM (active)
Streptokinase A
  EC50: 27 µM (active)
[4]
  EC50: 1.26 µM (active)
[5]
  EC50: > 60 µM (not active)
Streptococcus
  EC50: > 150 µM (not active)

## CCCCCCNC(=O)N[C@H](C(=O)NCCC[C@H]1CN2C(=NC[C@H]2C)N1CCC(c1ccccc1)c1ccccc1)C(C)O (stereo partly drawn)
Large T antigen
  IC50: > 100 µM (active)

## CCOC(=O)COc1ccc2c(c1)c(C(=O)OCC)c(C)n2CC
cells
  IC50: 5.46 µM (active)

## CCOC(=O)c1c(NC(=O)CC2Nc3ccccc3NC2=O)sc(C)c1C (stereo not drawn)
[6]
  EC50: > 300 µM (not active)
[7]
  EC50: > 300 µM (not active)

## Cc1ccc(N(CCC#N)C(=O)CSc2ccc3c(c2)OCCO3)cc1
Cytochrome P450 2D6
  AC50: 25.1 µM (inconclusive)

## Fc1ccc(N2CCN(Cc3c[nH]nc3-c3ccccc3)CC2)cc1
[3]
  EC50: > 150 µM (not active)
Streptokinase A
  EC50: > 150 µM (not active)
Streptococcus
  EC50: > 150 µM (not active)

## O=C(Nc1ccc2nc(-c3ccc(Br)o3)[nH]c2c1)c1ccco1
Cytochrome P450 2D6
  AC50: 1 µM (inconclusive)
Cytochrome P450 2C9
  AC50: 11.2 µM (inconclusive)

## COC(=O)c1[nH]c2ccccc2c1/C=C1\C(=O)NC(=O)N(c2ccc(OC)cc2)C1=O
Large T antigen
  IC50: 89 µM (active)

## O=C1NC(=O)N(Cc2ccccc2Cl)C(=O)/C1=C/Nc1ccc(F)cc1
[6]
  EC50: > 300 µM (not active)
[7]
  EC50: > 300 µM (not active)

## COC(=O)c1cc(C(=O)OC)cc(-n2c(C)cc(C(=O)CC#N)c2C)c1
[6]
  EC50: > 300 µM (not active)
[7]
  EC50: > 300 µM (not active)

## O=C(Nc1ccc2c(c1)CCC2)c1ccc(Br)o1
cells
  IC50: > 50 µM (active)

## N#CC1=C(N)Oc2[nH]nc(-c3cccnc3)c2C1c1ccc([N+](=O)[O-])o1 (stereo not drawn)
cells
  IC50: 9.19 µM (active)

## COc1ccccc1-c1nc(NCc2cnc(C)cn2)c2ccccc2n1
Cytochrome P450 2C19
  AC50: 39.8 µM (inconclusive)
Cytochrome P450 2D6
  AC50: 31.6 µM (inconclusive)

## Fc1cccc(/C=N\N=C/c2cccc(F)c2)c1
Cytochrome P450 2D6
  AC50: 25.1 µM (inconclusive)
Cytochrome P450 3A4
  AC50: 31.6 µM (inconclusive)

## N=c1c(C(=O)NC2CCCCC2)cc2c(=O)n3ccccc3nc2n1Cc1cccnc1
[6]
  EC50: > 300 µM (not active)
[7]
  EC50: 12.7 µM (active)

## Cc1ccc(S(=O)(=O)CCSc2nc(C)cc(C(F)(F)F)c2C#N)cc1
[6]
  EC50: > 300 µM (not active)
[7]
  EC50: 80.8 µM (active)

## COCC(=O)N1CCC[C@@]2(CCN(c3ncccn3)C2)C1
Cytochrome P450 2D6
  AC50: 15.8 µM (inconclusive)

## C/N=c1\scc(C)n1/N=C/c1ccc(O)cc1O
Large T antigen
  IC50: 4.27 µM (active)
[8]
  IC50: 10.5 µM (active)

## CCn1cc(C(=O)O)c(=O)c2cc(F)c(N/N=C/c3ccccc3[N+](=O)[O-])cc21
[3]
  EC50: 4.31 µM (active)
Streptokinase A
  EC50: > 150 µM (not active)
Streptococcus
  EC50: 13.4 µM (active)
INS1
  AC50: 10.1 µM (active)

## C/C(=N\Nc1ccc(Cl)c(Cl)c1)c1ccc(-n2ccnc2)cc1
[9]
  CC50: 35.9 µM (active)
[3]
  EC50: 3.05 µM (active)
Streptokinase A
  EC50: 17.2 µM (active)
Streptococcus
  EC50: 11.9 µM (active)

## Oc1ccc2[nH]ccc2c1
Large T antigen
  IC50: 80.2 µM (active)
